Calls of active or inactive are those of the source. No cut-off for these calls is given here.
Columns and labels:
MCF7 [1] = assay: Cytostatic activity against human MCF7 cells; assay type: functional, cell-based
HCT-116 = assay: Cytostatic activity against human HCT116 cells; assay type: functional, cell-based
MOLT-4 = assay: Cytostatic activity against human MOLT4 cells; assay type: functional, cell-based
SW-620 = assay: Cytostatic activity against human SW620 cells; assay type: functional, cell-based
[2] = Antioxidant activity assessed as inhibition of AAPH-induced lipid peroxidation at 0.1 mM; assay type: functional
[3] = system: Radical scavenging activity; assay: Antioxidant activity assessed as DPPH radical scavenging activity at 0.1 mM after 60 mins; assay type: functional
[4] = system: Radical scavenging activity; assay: Antioxidant activity assessed as DPPH radical scavenging activity at 0.1 mM after 20 mins; assay type: functional
NCI-H460 = assay: Cytostatic activity against human H460 cells; assay type: functional, cell-based
[5] = system: Radical scavenging activity; assay: Antioxidant activity assessed as DPPH radical scavenging activity at 0.05 mM after 60 mins; assay type: functional
[6] = system: Radical scavenging activity; assay: Antioxidant activity assessed as DPPH radical scavenging activity; assay type: functional
[7] = system: Radical scavenging activity; assay: Antioxidant activity assessed as DPPH radical scavenging activity at 0.05 mM after 20 mins; assay type: functional
Glycine max = assay: Inhibition of soybean lipoxygenase
MCF7 [8] = assay: Antiproliferative activity against human MCF7 cells at 100 uM after 24 hrs; assay type: functional; settings: MCF7, 24 h

Row | IC50 (MCF7 [1]) [µM] | IC50 (HCT-116) [µM] | IC50 (MOLT-4) [µM] | IC50 (SW-620) [µM] | IC50 (NCI-H460) [µM] | INH (Glycine max) [µM] | inhibition (Glycine max) | IC50 [2] | SMILES | Inhibition [2] [%] | Activity [3] [%] | Activity [4] | Activity [5] | Activity [6] | Activity [7] | inhibition at 100 µM (MCF7 [8]) [%]
1 | 31 | > 100 | > 100 | > 100 | > 100 | 230 | – | – | COc1cc(NC(C)CCCNC(=O)NCCCO)c2ncccc2c1 (stereo not given) | 56 | 33.3 | 28.6% | 27.7% | Dose-dependent effect | 12.2% | –
2 | > 100 | > 100 | ≥ 100 | > 100 | > 100 | 72 | – | – | COc1cc(N2C(=O)NCCCC2C)c2ncccc2c1 (stereo not given) | 88 | 57.1 | 48.8% | 40% | Dose-dependent effect | 30.5% | –
3 | 24 | > 100 | > 100 | > 100 | > 100 | – | inactive | – | COc1cc(NC(C)CCCNC(=O)NC(CO)(CO)CO)c2ncccc2c1 (stereo not given) | 86 | 40.5 | 28.6% | 22.3% | Dose-dependent effect | 24.4% | –
4 | 31 | 15 | 10 | 17 | 18 | 62 | – | – | COc1cc(NC(C)CCCNC(=O)NCCNC(=O)NCCCC(C)Nc2cc(OC)cc3cccnc23)c2ncccc2c1 (stereo not given) | 99 | 40.5 | 35.7% | 27.6% | Dose-dependent effect | 34.2% | –
5 | > 100 | 223 | > 100 | > 100 | > 100 | – | – | – | NC(=O)NO [HYDROXYUREA] | – | – | – | – | – | – | –
6 | 36 | > 100 | > 100 | > 100 | > 100 | 86 | – | – | COc1cc(NC(C)CCCNC(=O)N(CCO)CCO)c2ncccc2c1 (stereo not given) | 85 | 11.9 | inactive | 7.4% | Dose-dependent effect | 20.7% | –
7 | – | – | – | – | – | 220 | – | – | COc1cc(NC(C)CCCNC(=O)NC2CCCC2)c2ncccc2c1 (stereo not given) | 99 | 19 | 26.2% | 21.3% | Dose-dependent effect | 15.8% | –
8 | – | – | – | – | – | – | inactive | – | COc1cc(NC(C)CCCNC(=O)NC2CCCCC2)c2ncccc2c1 (stereo not given) | 99 | 25 | 27.4% | 16.3% | Dose-dependent effect | 28.9% | –
9 | – | – | – | – | – | 320 | – | – | COc1cc(NC(C)CCCNC(=O)N(C2CCCCC2)C2CCCCC2)c2ncccc2c1 (stereo not given) | 96 | 42.9 | 42.9% | 28.8% | Dose-dependent effect | 3.9% | –
10 | 44 | 29 | 61 | 0.2 | 2 | 310 | – | – | COc1cc(NC(C)CCCNC(=O)NCCCCCO)c2ncccc2c1 (stereo not given) | 63 | 46.4 | 34.5% | inactive | Dose-dependent effect | inactive | –
11 | 28 | 20 | – | ≥ 100 | 30 | 74 | – | – | COc1cc(NC(C)CCCN)c2ncccc2c1 (stereo not given) [PRIMAQUINE] | 45 | 21.9 | 18.1% | 19% | – | 17.2% | 20
12 | 44 | 57 | > 100 | 35 | > 100 | 83 | – | – | COc1cc(NC(C)CCCNC(=O)NO)c2ncccc2c1 (stereo not given) | 69 | 84.5 | 88.1% | 60.6% | Dose-dependent effect | 2.2% | –
13 | – | – | – | – | – | – | – | – | CC(Cc1ccc(O)c(O)c1)C(C)Cc1ccc(O)c(O)c1 (stereo not given) | – | 83 | 81% | – | – | – | –
14 | 26 | 28 | 34 | 45 | 38 | – | inactive | – | CCOC(=O)NCCCC(C)Nc1cc(OC)cc2cccnc12 (stereo not given) | 87 | 31 | inactive | 8.5% | Dose-dependent effect | 10.8% | –
15 | 9 | 14 | 12 | 20 | 21 | 230 | – | – | COc1cc(NC(C)CCCNC(=O)NOCc2ccccc2)c2ncccc2c1 (stereo not given) | 82 | 38.1 | 11.4% | inactive | Dose-dependent effect | inactive | –
16 | > 100 | > 100 | > 100 | > 100 | > 100 | – | inactive | – | COC(=O)NCCCC(C)Nc1cc(OC)cc2cccnc12 (stereo not given) | 83 | 48.8 | 75% | 13.8% | Dose-dependent effect | 24.4% | –
17 | 25 | > 100 | > 100 | > 100 | > 100 | 315 | – | – | COc1cc(NC(C)CCCNC(=O)NCCO)c2ncccc2c1 (stereo not given) | 81 | 51.2 | 60.7% | 10.6% | Dose-dependent effect | 3.7% | –
18 | – | – | – | – | – | – | – | – | Cc1c(C)c2c(c(C)c1O)CCC(C)(C(=O)O)O2 (stereo not given) [TROLOX] | 63 | – | – | – | – | – | –
19 | – | – | – | – | – | 600 | – | – | O=C(O)/C=C/c1ccc(O)c(O)c1 | – | – | – | – | – | – | –
20 | – | – | – | – | – | 260 | – | Not Active | COc1cc(NC(C)CCCNC(=O)n2nnc3ccccc32)c2ncccc2c1 (stereo not given) [PRIMAQUINE BENZOTRIAZOLIDE] | – | 73.8 | 16.7% | 20% | Dose-dependent effect | 18.4% | –
